{"source": "patent US9771342B2", "about": "“Monascuspurpurones, preparation process thereof, and uses of the monascuspurpurones” (Food Industry Research and Development Institute, priority 2010, dated 2017)", "key": {"PPARγ-LBD": {"biological_target": "T1, PPARγ-LBD (Homo sapiens, UniProt P37231)", "T1 construct": "10 μL 4× PPARγ-LBD/Tb-anti-GST Ab; purchased Invitrogen PV4894", "T1 sequence (P37231 238-503 limits assumed)": "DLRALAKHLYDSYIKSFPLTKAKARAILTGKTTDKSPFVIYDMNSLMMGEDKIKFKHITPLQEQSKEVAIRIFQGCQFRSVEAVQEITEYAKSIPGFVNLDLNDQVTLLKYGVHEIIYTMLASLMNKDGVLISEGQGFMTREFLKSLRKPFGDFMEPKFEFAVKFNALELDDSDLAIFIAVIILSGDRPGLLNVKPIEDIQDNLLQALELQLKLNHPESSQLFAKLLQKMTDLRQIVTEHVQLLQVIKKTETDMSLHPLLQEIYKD", "experiment": "LanthaScreen TR-FRET PPAR Competitive Binding Assay", "settings": "tested at 10-160 μg/ml, 2 hours at room temperature", "protocol": "10, 20, 40, 80 and 160 μg/ml of Compound 1 were tested in the ligand binding assay conducted following the manuals described in LanthaScreen TR-FRET PPAR Competitive Binding Assay kits (Invitrogen New York, N.Y. Catalog no. PV4894). In a 96-well microtiter plate, the reagents were pipetted into each well in the following order: 20 μL 2× Test Compound, 10 μL 4× Fluormone™ Pan-PPAR Green and 10 μL 4× PPARγ-LBD/Tb-anti-GST Ab in a total assay volume of 40 μl/well. The reagents were gently mixed by placing the microtiter plate on an orbital plate shaker for 30 seconds. The samples were incubated at room temperature (20-25° C.) for 2 hours in the dark allowing the binding of the samples to reach equilibrium. The fluorescent emission signal of each well was measured at 495 nm and 520 nm with an Absorbance Microplate Reader (Spectra Max M5 from Molecular Devices LLC)."}, "3T3-L1 cells": {"system": "3T3-L1 cells", "experiment": "Quantitative real-time PCR of adipocyte differentiation related gene expression", "type": "cell-based", "protocol": "The upstream genes that regulate adipocyte differentiation have been previously reported (F. M. Gregoire, C. M. Smas and H. S. Sul, Understanding adipocyte differentiation. Physiological Reviews, 783 (1998), pp. 783-809.) Among them, aP2, LPL, PPARγ, adiponectin, GLUT4, GLUT1, and C/EBPα were assayed to monitor the regulation of 3T3-L1 preadipocyte differentiation. The housekeeping genes of β-actin and Glyceraldehyde 3-phosphate dehydrogenase (GADPH) were used as control. “do” represents the conditions of the 3T3-L1 preadipocytes before adding inducing agents. In the “NC” groups, the 3T3-L1 preadipocytes were not treated with any inducing agent. Both “do” and “NC” groups were the control groups. In the groups of “insulin,” “E,” and “troglitazone,” the 3T3-L1 preadipocytes were induced with insulin, Compound 1 and insulin, and troglitazone, respectively.\nAfter culturing the 3T3-L1 cells for 9 days, insulin, Compound 1 and insulin, and troglitazone were added to the medium. The cells were further cultivated, and the samples were collected on day 4 (early adipocyte differentiation stage), day 7 (middle stage) and day 9 (late stage) for the following assays.\nTotal RNA was extracted from 3T3-L1 cells using TRIZOL reagent according to the manufacturer's instructions (GIBCO 15596-026; Molecular Research Center, Inc). 4 μg of total RNA from each sample were reverse-transcribed to cDNA according to the protocol of the reverse transcript system [RevertAid H Minus First Strand cDNA Synthesis Kit (Fementas K1632)] with the oligo (dT)18 primers. A TaqMan One-Step RT-PCR Master Mix reagent kit and inventory primer and probes (Applied Biosystems, Foster, Calif.) were applied for the quantitative real-time PCR followed by a TaqMan gene expression assay. The sequences aP2 (Mm00445878_ml), LPL (Mm00434770_ml), PPARγ (Mm01184322_ml), adiponectin (Mm00456425_ml), GLUT4 (Mm01245502_ml), GLUT1 (Mm01192270_ml), C/EBPα (Mm01265914_sl), C/EBPδ (Mm00786711_sl), β-actin (Mm01205647_gl) and GADPH (Mm99999915_gl) were amplified in the PCR. Levels of mRNAs for housekeeping genes (β-actin and GADPH) were also measured by the real-time PCR. After cDNA synthesis, the quantitative real-time PCR was performed with the ABI Prism 7300 instrument (Applied Biosystems, Foster City, Calif., USA) according to the manufacturer's protocol. The PCR conditions were 1 cycle of 50 ° C. for 2 min, then 95 ° C. for 10 min, followed by 40 cycles of 95 ° C. for 15 seconds and 60 ° C. for 1 min. The quantification was performed in duplicate and the experiments were repeated independently three times."}, "3T3-L1 preadipocytes": {"system": "3T3-L1 preadipocytes", "experiment": "Enhancement of 3T3-L1 preadipocyte differentiation in insulin differentiation model (AdipoRed staining / triglyceride)", "type": "cell-based", "settings": "for Oil Red assay (% of control): insulin model, 3T3-L1 differentiation", "protocol": "Preadipocytes were prepared according to the method described by Wald et al., (2007, “The small molecule harmine is an antidiabetic cell-type-specific regulator of PPARγ expression.” Cell Metabolism, 5(5): 357-370). Preadipocytes were cultured in DMEM (Dulbecco's Modified Eagle's Medium-high glucose, Sigma D-7777) containing 10% of fetal bovine serum (FBS) and incubated at 37° C. in a 5% CO2 incubator.\nBefore the differentiation induction experiments, the cells were plated into either 96- or 24-well plates (the concentration of cells in each well was about 2×10^4/cm^2). The plates were incubated for about two days to allow the cells to proliferate to confluence, and then maintained for another two days. The medium was changed to different differentiation media according to different experiments. The day of switching to differentiation medium was designated as day zero.\nThe differentiation medium used in insulin differentiation model was DMEM with 10% FBS comprising 10 μg/ml of insulin. Differentiation media with various concentrations of Compound 1 were added to each well of the 24- or 96-well 3T3-L1 preadipocyte plates (the final concentration of Compound 1 in each well was 2 μg/ml, 5 μg/ml, 10 μg/ml, and 20 μg/ml, respectively). The control group was the culture with only the differentiation medium and no sample. The cultures were incubated at 37° C. in a 5% CO2 incubator for seven days (during the period, the differentiation medium and sample were replaced with fresh ones twice), and then the medium was replaced by DMEM with 10% FBS. The cultures were maintained until day 9 or day 10 . The cells of the experiment groups and control groups at day 9 or day 10 were stained with AdipoRed and the concentrations of triglyceride were analyzed.\nThe 96-well plates were rinsed with PBS, and 200 μl of PBS and 5 μl of AdipoRed reagent (Lonze Walkersville, Inc., Walkersville, Md., USA, Catalog No. PT-7009) were added to each well. After 10 to 15 minutes, the plates were read with a spectrofluorometer (Infinite M200) set at an excitation wavelength of 485 nm and an emission wavelength of 572 nm. The fluorescent data of the experiment group was divided by the fluorescent data of the control group to obtain a percentage of induction activity.\nThe 24-well plates were rinsed with PBS, and the cells were washed off with 0.1 ml of 1% Triton X 100 per well. The cells were then frozen, thawed and centrifuged (10,000 rpm/5 min) and the supernatant was collected. An aliquot of 0.05 ml of the supernatant was analyzed using Triglycerol assay Kit (Audit Diagnostics, Ltd.).\nThe protein amounts were analyzed using Bio-Rad Dc Protein assay reagent (Bio-Rad). […]"}, "[1]": {"settings": "day 4 (early stage), Compound 1 and insulin vs insulin group"}, "[2]": {"settings": "day 7 (middle stage), Compound 1 and insulin vs insulin group"}, "[3]": {"settings": "day 9 (late stage), Compound 1 and insulin vs insulin group"}, "[4]": {"settings": "early, middle and late adipocyte differentiation stages"}}, "data": [{"substance": "rel-(1S,7aR,3aR)-1-Hexanoyl-5,13-dimethyl-6-(2-oxopentyl)-7a,7-dihydrobenzofuran-2,4-dione [Compound 1]", "values": [{"measurement": "PPARγ binding IC50", "setting": "PPARγ-LBD", "result": "68 ± 21", "unit": "µg/mL"}, {"measurement": "expression of C/EBPα, increase compared to insulin group", "setting": "3T3-L1 cells; [1]", "result": "about 50%"}, {"measurement": "expression of GluT1 relative to insulin group", "setting": "3T3-L1 cells; [1]", "result": 0.6, "unit": "fold"}, {"measurement": "expression of PPARγ, increase compared to insulin group", "setting": "3T3-L1 cells; [1]", "result": "about 50%"}, {"measurement": "expression of adiponectin, increase compared to insulin group", "setting": "3T3-L1 cells; [1]", "result": "about 50%"}, {"measurement": "expression of GluT1 relative to insulin group", "setting": "3T3-L1 cells; [2]", "result": 0.3, "unit": "fold"}, {"measurement": "expression of LPL relative to insulin group", "setting": "3T3-L1 cells; [2]", "result": 0.3, "unit": "fold"}, {"measurement": "expression of PPARγ relative to insulin group", "setting": "3T3-L1 cells; [2]", "result": 1.8, "unit": "fold"}, {"measurement": "expression of aP2 relative to insulin group", "setting": "3T3-L1 cells; [2]", "result": 0.3, "unit": "fold"}, {"measurement": "expression of GluT1 relative to insulin control", "setting": "3T3-L1 cells; day 9 (late stage), Compound 1 and insulin vs insulin control", "result": 0.6, "unit": "fold"}, {"measurement": "expression of C/EBPα relative to insulin group", "setting": "3T3-L1 cells; [3]", "result": 1.59, "unit": "folds"}, {"measurement": "expression of PPARγ relative to insulin group", "setting": "3T3-L1 cells; [3]", "result": 1.35, "unit": "folds"}, {"measurement": "expression of adiponectin relative to insulin group", "setting": "3T3-L1 cells; [3]", "result": 1.49, "unit": "folds"}, {"measurement": "effect on the expression of aP2, LPL, adiponectin, GLUT4, and GLUT1", "setting": "3T3-L1 cells; [4]", "result": "little effect"}, {"measurement": "effect on the expressions of PPARγ and C/EBPα", "setting": "3T3-L1 cells; [4]", "result": "can stimulate the expressions of PPARγ and C/EBPα"}, {"measurement": "Oil Red assay (% of control)", "setting": "3T3-L1 preadipocytes; 2 μg/ml", "result": "127 ± 4 % of control"}, {"measurement": "Oil Red assay (% of control)", "setting": "3T3-L1 preadipocytes; 5 μg/ml", "result": "140 ± 5 % of control"}, {"measurement": "Oil Red assay (% of control)", "setting": "3T3-L1 preadipocytes; 10 μg/ml", "result": "148 ± 8 % of control"}, {"measurement": "triglyceride droplets in differentiated adipocytes, inverted microscope", "setting": "3T3-L1 preadipocytes; 2, 5 and 10 μg/ml vs control culture (insulin only), FIG. 4", "result": "more triglyceride droplets than the control culture"}]}]}
